PubChem BioAssay AID248 (DTP/NCI, 2004)
Where “and” joins values, the source holds several entries; their conditions need not be identical. Identical values can stand only once. Toxic doses and inconclusive results are not listed. No stated cut-off is given here; in the data, active means T/C of 150% or more; inactive means T/C below 125%.

Test system: L1210 leukemia ip in BDF1 mice, survival T/C
Assay: NCI In Vivo Anticancer Drug Screen. Data for tumor model L1210 Leukemia (intraperitoneal) in B6D2F1 (BDF1) mice
Settings: endpoint: mean survival time, higher = longer survival
How it was run: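 Tumor cells were implanted, animals were treated, and survival was followed. The result divides the treated measurement by the vehicle-control measurement.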

[1] = dose: 100.0 mg/kg/injection, schedule: Q04DX003 (ip), vehicle: saline
[2] = dose: 200.0 mg/kg/injection, schedule: Q04DX003 (ip), vehicle: saline
[3] = dose: 400.0 mg/kg/injection, schedule: Q04DX003 (ip), vehicle: saline

Measured: T/C

CCC1(CC)NC(=O)N(CCO)C1=O
inactive: dose: 50.0 mg/kg/injection, schedule: Q04DX003 (ip), vehicle: saline 110 % of control | [1] 95 % of control | [2] 106 % of control | [3] 105 % of control

NC(Cc1cc(O)c(O)c(S(=O)(=O)c2ccccc2)c1)C(=O)O (centres undefined)
inactive: dose: 87.5 mg/kg/injection, schedule: Q01DX009 (ip), vehicle: saline 98 % of control | dose: 175.0 mg/kg/injection, schedule: Q01DX009 (ip), vehicle: saline 96 % of control | dose: 350.0 mg/kg/injection, schedule: Q01DX009 (ip), vehicle: saline 107 % of control

Clc1nc(Cl)nc(SCCSc2nc(Cl)nc(Cl)n2)n1
inactive: [1] 97 % of control | [2] 110 % of control | [3] 98 % of control

CC(=O)Nc1ccc(/C=N/N=C(N)N)cc1
inactive: dose: 63.0 mg/kg/injection, schedule: Q01DX Z (ip), vehicle: carboxymethylcellulose (CMC) 88 % of control | dose: 125.0 mg/kg/injection, schedule: Q01DX Z (ip), vehicle: carboxymethylcellulose (CMC) 100 % of control

CC1(C)OC2CS(=O)(=O)CC2O1 (centres undefined)
inactive: dose: 100.0 mg/kg/injection, schedule: Q04DX003 (ip), vehicle: saline with Tween-80 100 % of control | dose: 200.0 mg/kg/injection, schedule: Q04DX003 (ip), vehicle: saline with Tween-80 105 % of control | dose: 400.0 mg/kg/injection, schedule: Q04DX003 (ip), vehicle: saline with Tween-80 102 % of control

O=S(=O)(O)CS(=O)(=O)O
inactive: dose: 5.0 mg/kg/injection, schedule: Q01DX001 (ip), vehicle: saline 101 % of control | dose: 10.0 mg/kg/injection, schedule: Q01DX001 (ip), vehicle: saline 100 % of control | dose: 20.0 mg/kg/injection, schedule: Q01DX001 (ip), vehicle: saline 97 % of control | dose: 40.0 mg/kg/injection, schedule: Q01DX001 (ip), vehicle: saline 101 % of control

CCN(CC)CCOC(=O)C(c1ccccc1)C1CCCCC1 (centres undefined)
inactive: dose: 6.25 mg/kg/injection, schedule: Q01DX009 (ip), vehicle: saline 105 % of control | dose: 12.5 mg/kg/injection, schedule: Q01DX009 (ip), vehicle: saline 95 % of control | dose: 25.0 mg/kg/injection, schedule: Q01DX009 (ip), vehicle: saline 95 % of control | dose: 50.0 mg/kg/injection, schedule: Q01DX009 (ip), vehicle: saline 103 % of control | dose: 100.0 mg/kg/injection, schedule: Q01DX009 (ip), vehicle: saline 103 % of control

CCOC(=O)CCCN(c1ccccc1CC(=O)OCC)S(C)(=O)=O
inactive: dose: 100.0 mg/kg/injection, schedule: Q01DX009 (ip), vehicle: Klucel (hydroxypropylcellulose) (HPC) 103 % of control | dose: 100.0 mg/kg/injection, schedule: Q04DX003 (ip), vehicle: Klucel (hydroxypropylcellulose) (HPC) 102 % of control | dose: 200.0 mg/kg/injection, schedule: Q01DX009 (ip), vehicle: Klucel (hydroxypropylcellulose) (HPC) 94 % of control | dose: 200.0 mg/kg/injection, schedule: Q04DX003 (ip), vehicle: Klucel (hydroxypropylcellulose) (HPC) 112 % of control | dose: 400.0 mg/kg/injection, schedule: Q01DX009 (ip), vehicle: Klucel (hydroxypropylcellulose) (HPC) 97 % of control | dose: 400.0 mg/kg/injection, schedule: Q04DX003 (ip), vehicle: Klucel (hydroxypropylcellulose) (HPC) 100 % of control

COC1OC(CI)C(OC(=O)c2ccccc2)C(OC(=O)c2ccccc2)C1OC(=O)c1ccccc1 (centres undefined)
inactive: dose: 100.0 mg/kg/injection, schedule: Q04DX002 (ip), vehicle: Klucel (hydroxypropylcellulose) (HPC) 101 % of control | dose: 200.0 mg/kg/injection, schedule: Q04DX002 (ip), vehicle: Klucel (hydroxypropylcellulose) (HPC) 93 % of control | dose: 400.0 mg/kg/injection, schedule: Q04DX002 (ip), vehicle: Klucel (hydroxypropylcellulose) (HPC) 121 % of control

NNC(=S)NCCc1ccccc1
inactive: dose: 25.0 mg/kg/injection, schedule: Q01DX009 (ip), vehicle: Klucel (hydroxypropylcellulose) (HPC) 101 % of control | dose: 50.0 mg/kg/injection, schedule: Q01DX009 (ip), vehicle: Klucel (hydroxypropylcellulose) (HPC) 105 % of control

O=C(O)C(CCCCC1CCCCC1)CCC1CCCCC1 (centres undefined)
inactive: dose: 100.0 mg/kg/injection, schedule: Q01DX001 (ip), vehicle: saline with Tween-80 97 % of control | dose: 200.0 mg/kg/injection, schedule: Q01DX001 (ip), vehicle: saline with Tween-80 99 % of control | dose: 400.0 mg/kg/injection, schedule: Q01DX001 (ip), vehicle: saline with Tween-80 94 % of control

Cc1c(-c2ccccc2)sc(/N=C/c2cc(Br)cc(Br)c2O)c1C#N
inactive: dose: 100.0 mg/kg/injection, schedule: Q01DX009 (ip), vehicle: saline with Tween-80 99 % of control and 111 % of control | dose: 100.0 mg/kg/injection, schedule: Q04DX002 (ip), vehicle: saline with Tween-80 112 % of control and 90 % of control | dose: 200.0 mg/kg/injection, schedule: Q01DX009 (ip), vehicle: saline with Tween-80 97 % of control and 86 % of control | dose: 200.0 mg/kg/injection, schedule: Q04DX002 (ip), vehicle: saline with Tween-80 93 % of control and 102 % of control | dose: 400.0 mg/kg/injection, schedule: Q01DX009 (ip), vehicle: saline with Tween-80 94 % of control | dose: 400.0 mg/kg/injection, schedule: Q04DX002 (ip), vehicle: saline with Tween-80 106 % of control and 107 % of control

N#CS/C=C\C(N)=O
inactive: dose: 3.0 mg/kg/injection, schedule: Q01DX009 (ip), vehicle: Klucel (hydroxypropylcellulose) (HPC) 94 % of control | dose: 6.0 mg/kg/injection, schedule: Q01DX009 (ip), vehicle: Klucel (hydroxypropylcellulose) (HPC) 108 % of control | dose: 12.0 mg/kg/injection, schedule: Q01DX009 (ip), vehicle: Klucel (hydroxypropylcellulose) (HPC) 106 % of control | dose: 12.5 mg/kg/injection, schedule: Q01DX009 (ip), vehicle: Klucel (hydroxypropylcellulose) (HPC) 104 % of control | dose: 12.5 mg/kg/injection, schedule: Q04DX003 (ip), vehicle: Klucel (hydroxypropylcellulose) (HPC) 90 % of control
